According to a melting point compilation (Tetko et al.; mined from patent text by program, amines drawn as free bases though some values may be those of a salt):

Row | Structure (SMILES) | melting point [°C]
1 | CC1(C)Cc2c(Cl)cccc2C1N=CNC#N (centres undefined) | 173 to 175
2 | C=CCNc1cc2c(c3ccccc13)C(CCl)CN2C(=O)c1cc2cc(OC)c(OC)c(OC)c2[nH]1 (centres undefined) | 107 to 112
3 | CCN(CC)C(=O)c1cc(-c2ccccc2)ccc1-c1ccccc1 | 128 to 130
4 | CC(=Cc1ccccc1)n1c(=O)n(CCCCCl)c2ccccc21 | 90
5 | CC#CCOc1ccc(SC(C(=O)O)c2cccc(Cl)c2)cc1 (centres undefined) | 64
6 | CC(C)(C)OC(=O)N[C@@H](CSc1ccccc1N)C(=O)O | 109 to 111
7 | Cc1oc(-c2ccc(Cl)cc2)cc1C(=O)NCc1ccc2cc(O)ccc2c1 | 202 to 204
8 | O=C(c1ccccc1)c1cc(Cl)cc2c1OCC2C(=O)O (centres undefined) | 155 to 157
9 | Cc1oc(-c2ccc(F)cc2)nc1COc1cccc(CN(O)C(N)=O)c1 | 156 to 157
10 | COCC(=O)Nc1cccc(NC(=O)COC)c1 | 110 to 111
11 | CS(=O)(=O)OCc1cc(-c2ccc(OCc3ccccc3)cc2)no1 | 110 to 112
12 | CCC1(CC)C(=O)N(CC(O)Cc2cc(C(C)C)c(O)c(C(C)C)c2)C(=O)N(CC(O)Cc2cc(C(C)C)c(O)c(C(C)C)c2)C1=O (centres undefined) | 126 to 127
13 | O=C(O)C(CSc1nccs1)CS(=O)(=O)c1ccc(-c2ccc(Cl)cc2)cc1 (centres undefined) | 152 to 154
14 | Cc1cc(CCCCCOc2c(Cl)cc(-c3ccco3)cc2Cl)on1 | 29 to 30
15 | COc1ccc(-n2nc(-c3ccc(OC)c(CCC(=O)O)c3OC)cc2-c2ccc(Cl)cc2)cc1 | 100 to 101
16 | CCS(=O)(=O)C(F)(F)C(O)(Cn1cncn1)c1ccc(F)cc1 (centres undefined) | 131 to 132
17 | CCNC(=O)[C@@H]1CCCN1C(=O)[C@H](C)NC(=O)C1CCCCC1 | 190 to 192
18 | CC(CCC(F)(F)C(C)(C)O)C1CCC2C3CCC4CC(O)CCC4(C)C3CCC12C (centres undefined) | 142
19 | CC(C)(C)OC(=O)c1ccc(CN(CCc2ccccc2)C(=O)OC(C)(C)C)c(N)c1 | 105 to 106
20 | O=C(O)Cc1cc(C(=O)c2ccc3cc(-c4ccccc4)[nH]c3c2)sc1-c1ccccc1 | 238 to 240
21 | O=C(O)Cc1ccc2c(c1)CC(CCNS(=O)(=O)c1ccc(Cl)cc1)C2 (centres undefined) | 146 to 147
22 | COc1ccc(C(O)CN2CCN(C(c3ccccc3)c3ccccc3)CC2)c(OC)c1OC (centres undefined) | 128
23 | Cc1ccnc(N=C2SC[C@@H]3Cc4ccccc4CN23)n1 | 179
24 | O=C(O)C(=O)N1CCC(Cc2ccc(F)cc2)CC1 | 152 to 154
25 | CCCc1cccc(=O)[nH]1 | 89 to 90
26 | Cc1ccc2nc(N3CCN(c4ncccc4C(F)(F)F)CC3)[nH]c2c1 | 216 to 217
27 | O=Cc1cn(Cc2ccc(Cl)cc2)c2ccccc12 | 122

Next, values leading:

Row | melting point [°C] | Structure (SMILES)
28 | 153 to 154 | NC(=O)c1nc2ccccc2cc1OCCCN1CCN(c2cccc3sccc23)CC1
29 | > 300 | O=c1cc(-c2ccc(F)cc2)c2c([nH]1)C1CCC(C2)C1 (centres undefined)
30 | 149 to 150 | Cc1ccc2c(c1)Oc1sc(C)cc1C(N1CCN(C)CC1)=N2
31 | 120 to 122 | CCCCC(CC)COc1c(-c2ccc(S(C)(=O)=O)cc2)cnn(-c2ccc(F)cc2)c1=O (centres undefined)
32 | 84 to 85 | CCCCCCCCCCc1ccc(C(=O)CCCCC(=O)O)cc1
33 | 116 to 117 | Cc1nc(-n2cnn(CC3CC3)c2=O)sc1C(=O)NCc1cccnc1
34 | 76 to 78 | C(#Cc1ccccn1)CCc1nc(-c2ccc3ccccc3c2)no1
35 | 162 to 164 | Fc1ccc(-c2[nH]cc(CCCN3CCNCC3)c2-c2ccncc2)cc1
36 | 183 to 184 | CCOC(=O)c1sc(N)nc1-c1cccc(C)c1
37 | 163 | C#CCOC(=O)C1=C(C)N(C)C(C)=C(C(=O)OCC#C)C1c1cccc(C(F)(F)F)c1
38 | 75 | O=S(=O)(CC(Br)(CBr)c1cccc(Cl)n1)C1CC1 (centres undefined)
39 | 134 to 137 | O=[N+]([O-])c1cc([N+](=O)[O-])c(N(SC(Cl)(Cl)Cl)c2cc(C(F)(F)F)ccc2Cl)c(C(F)(F)F)c1
